Test results published in patent USRE38132E1, “Phenylpyrrolidines, phenylimidazolidines,3-phenyl-1,3-oxizolidines and 3-phenyl-1,3-thiazolidines and their use in the treatment of inflammatory disease” (Boehringer Ingelheim Pharmaceuticals, Inc., priority 1997, dated 2003).
pIC50, pKd: −log10 of the molar value. Like-named read-outs stand apart in the source and are kept apart here.

Legend:
[1] = test system: cell bound form of LFA-1 (CD18, CD11a) with ICAM-1, SKW3 cells; test: Inhibition of SKW3 cell binding to ICAM-1 (PMA-stimulated); format: cell-based, human; settings: read-out: Assay to Detect SKW3 Cells Binding to ICAM IC50
Source text: (§1) Assay to Determine Inhibition of SKW3 cell binding to ICAM-1 vs. Binding to Fibronectin
(§2) This assay is used to test the selective ability of a test compound to antagonize the interaction of a cell bound form of LFA-1 with ICAM-1. The assay uses a human T cell line, SKW3 cells which express CD18, CD11a and other integrins not related to CD18, CD11a and which can be “activated” by phorbol esters. Phorbol esters enhance the affinity of CD18, CD11a for ICAM-1.
(§3) This same lymphocyte line, SKW3, also adheres to fibronectin in the presence of phorbol esters. This adhesion is mediated by membrane proteins independent of the LFA-1/ICAM-1 interaction. The SKW3 cells express another integrin, VLA4, which is the receptor for fibronectin. Therefore, as a preliminary indication of the selectivity of a test compounds to interfere with Leukointegrin/CAM interactions but not other integrin-ligand binding events, a compound can be tested for its ability to antagonize cell bound fibronectin receptor in its interaction with purified fibronectin. Compounds that inhibit this fibronectin adhesion are not specific antagonists of the CD18, CD11a/ICAM-1 binding.
(§4) Description of Assay Protocol:
(§5) Ninety-six well plates are coated with either sICAM-1(40 μg/mL) or fibronectin (100 μg/mL) in Diluting buffer for 1 h at room temperature. Added to the wells are 100 μL of the appropriately diluted test compound or 100 μL of RPMI with 15% fetal bovine serum as a control. SKW3 cells, which express CD18, CD11a and VLA4 (Dustin, M.; et al., J. Exp. Med. 1987, 165, 672-692) are washed and suspended to a concentration of 10^6 cells/mL in RPMI with 15% fetal bovine serum. Immediately before adding the cells to the wells, cells are stimulated with the phorbol ester 12-myristate 13-acetate (PMA) for a final concentration of […]. 100 μL of cells are then added to the wells resulting in a final concentration of […]. The plates are incubated for 2 h at 37° C. Unbound or loosely bound cells are gently washed away with RPMI.
(§6) Data are reported as the concentration or concentration range (in μM) at which 50% of binding is inhibited.

[2] = biological target: T1, interaction of ICAM-1 with the Leukointegrin CD18/CD11a (LFA-1) (Homo sapiens, UniProt P05107+P20701); test: Assay to determine inhibition of LFA-1 binding to ICAM-1 (immunopurified LFA-1 on plate-bound sICAM-1, ELISA readout)
T1 construct: endogenous in cells; sICAM-1: made in house, secreted from transfected CHO DUX cells
T1 sequence (P20701 26-1170): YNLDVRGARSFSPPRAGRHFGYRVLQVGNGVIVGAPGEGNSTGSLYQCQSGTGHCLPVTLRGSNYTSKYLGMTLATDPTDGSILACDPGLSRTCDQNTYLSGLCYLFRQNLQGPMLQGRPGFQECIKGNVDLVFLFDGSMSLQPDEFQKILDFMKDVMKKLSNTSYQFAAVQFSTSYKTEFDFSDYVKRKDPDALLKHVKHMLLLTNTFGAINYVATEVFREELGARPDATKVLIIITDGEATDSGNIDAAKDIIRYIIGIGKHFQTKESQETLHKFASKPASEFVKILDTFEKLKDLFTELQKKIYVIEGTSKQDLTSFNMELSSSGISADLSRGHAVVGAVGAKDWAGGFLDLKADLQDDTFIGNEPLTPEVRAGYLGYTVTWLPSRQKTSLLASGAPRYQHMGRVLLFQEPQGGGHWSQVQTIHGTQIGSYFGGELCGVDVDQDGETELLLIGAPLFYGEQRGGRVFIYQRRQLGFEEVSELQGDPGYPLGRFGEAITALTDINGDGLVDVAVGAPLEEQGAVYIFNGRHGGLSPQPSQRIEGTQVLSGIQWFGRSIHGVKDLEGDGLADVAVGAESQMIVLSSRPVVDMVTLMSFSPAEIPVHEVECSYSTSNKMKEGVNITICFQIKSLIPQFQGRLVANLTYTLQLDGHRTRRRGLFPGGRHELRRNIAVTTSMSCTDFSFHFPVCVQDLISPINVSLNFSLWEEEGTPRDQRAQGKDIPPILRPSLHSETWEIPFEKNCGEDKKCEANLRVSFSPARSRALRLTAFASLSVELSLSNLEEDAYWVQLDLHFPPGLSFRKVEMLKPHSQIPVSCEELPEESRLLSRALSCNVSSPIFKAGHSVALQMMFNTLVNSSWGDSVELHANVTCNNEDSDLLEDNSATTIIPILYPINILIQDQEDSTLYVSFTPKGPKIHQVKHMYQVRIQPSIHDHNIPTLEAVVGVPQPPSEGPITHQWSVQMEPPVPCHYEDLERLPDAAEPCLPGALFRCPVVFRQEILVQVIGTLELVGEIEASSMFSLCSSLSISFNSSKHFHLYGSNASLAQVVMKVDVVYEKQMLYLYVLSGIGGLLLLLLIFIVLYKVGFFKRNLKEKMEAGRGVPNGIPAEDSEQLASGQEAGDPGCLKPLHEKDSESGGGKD
T1 sequence (P05107 23-769): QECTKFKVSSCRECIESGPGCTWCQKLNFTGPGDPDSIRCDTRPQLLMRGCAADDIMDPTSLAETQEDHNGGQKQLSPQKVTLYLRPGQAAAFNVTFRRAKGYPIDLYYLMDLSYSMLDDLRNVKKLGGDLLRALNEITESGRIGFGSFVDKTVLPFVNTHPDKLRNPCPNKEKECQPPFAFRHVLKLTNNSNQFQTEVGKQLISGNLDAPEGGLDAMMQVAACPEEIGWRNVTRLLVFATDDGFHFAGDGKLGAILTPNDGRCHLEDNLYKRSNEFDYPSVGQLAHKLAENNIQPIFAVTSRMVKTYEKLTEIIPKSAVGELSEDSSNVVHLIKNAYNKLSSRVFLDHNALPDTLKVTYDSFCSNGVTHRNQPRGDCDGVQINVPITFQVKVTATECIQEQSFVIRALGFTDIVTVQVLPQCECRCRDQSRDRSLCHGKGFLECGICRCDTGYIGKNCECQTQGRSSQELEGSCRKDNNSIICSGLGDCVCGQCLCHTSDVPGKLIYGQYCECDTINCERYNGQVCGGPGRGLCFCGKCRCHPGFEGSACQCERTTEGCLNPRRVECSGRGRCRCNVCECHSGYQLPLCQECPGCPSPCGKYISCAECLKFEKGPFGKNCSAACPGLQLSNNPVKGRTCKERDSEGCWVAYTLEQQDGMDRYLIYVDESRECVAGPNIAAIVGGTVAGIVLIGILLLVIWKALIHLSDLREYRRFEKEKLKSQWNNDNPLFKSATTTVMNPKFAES
Source text: Assay to Determine Inhibition of LFA-1 Binding to ICAM-1 Purpose of Assay: This assay protocol is designed to study the direct antagonism, by a test compound, of the interaction of the CAM, ICAM-1 with the Leukointegrin CD18/CD11a (LFA-1). […] After collection and neutralization of fractions from the TS2/4 column, samples are pooled and precleared with Protein G agarose. […] Wells are washed 3 times with Diluting Buffer. The bound LFA-1 is detected by the addition of a polyclonal antibody directed against a peptide corresponding to the CD18 cytoplasmic tail in a 1:100 dilution with Diluting Buffer and 1% BSA and allowed to incubate for 45 min at 37° C. Wells are washed 3 times with Diluting Buffer and the bound polyclonal antibody is detected by the addition of a 1:4000 dilution of horse radish peroxidase conjugated to goat immunoglobulin directed against rabbit immunoglobulin. […] The lack of the addition of LFA-1 to the binding assay is used as a background control for all samples. A dose-response curve is obtained for all test compounds. Results of these tests are reported as Kd's in μM.

[3] = test system: cell bound fibronectin receptor (VLA4) with fibronectin, SKW3 cells; test: Inhibition of SKW3 cell binding to fibronectin (selectivity counter-assay); format: cell-based, human; settings: for pIC50: read-out: Assay to Detect SKW3 Cells Binding to FIBRONECTIN IC50
Source text: as §1, §2, §3, §4, §5, §6

[4] = Homo sapiens, SKW3, values marked c: no inhibition observed up to highest dose
[5] = values marked e approximated from incomplete dose-response curve
[6] = No inh = no inhibition observed up to highest dose, exact quantification not always possible due to intrinsic toxicity
[7] = values marked c: no inhibition observed up to highest dose

| Compound | pIC50 [1, 4] | pKd [2, 5] | Cellular Toxicity Assay MTT LD50 (SKW3 cells) [µM] | pIC50 [3, 4] | pIC50 ([1]; Homo sapiens, SKW3) | pKd [2] | Assay to Detect SKW3 Cells Binding to FIBRONECTIN IC50 [3, 6] | pIC50 ([3]; Homo sapiens, SKW3, No inh = no inhibition observed up to highest dose, exact quantification not always possible due to intrinsic toxicity) | Assay to Detect SKW3 Cells Binding to FIBRONECTIN IC50 [3, 7] | pIC50 [1, 7] | pIC50 [3, 7] |
| --- | --- | --- | --- | --- | --- | --- | --- | --- | --- | --- | --- |
| C[C@H](c1ccccc1)[C@@H]1C(=O)N(c2cc(Cl)cc(Cl)c2)C(=O)N1C [Example 85] | 4.42 to 4.72 | 6.14 | >500 | < 4.12 | – | – | – | – | – | – | – |
| C[C@H](c1ccccc1)[C@]1(C)C(=O)N(c2cc(Cl)cc(Cl)c2)C(=O)N1C [Example 269] | – | – | 250 to 500 | – | 4.60 | 6.54 | No inh^c | – | – | – | – |
| C[C@@]1(Cc2ccc(Br)cc2)C(=O)N(c2cc(Cl)cc(Cl)c2)C(=O)N1CCCCN [Example 241] | – | – | 9 to 18 | – | 5.80 to 6.10 | 7.00 | – | 4.89 | – | – | – |
| CCN1C(=O)N(c2cc(Cl)cc(Cl)c2)C(=O)C1(C)Cc1ccccc1 (centres unmarked) [Example 89] | 4.30 | 6.54 | 500 | – | – | – | – | – | No inh^c | – | – |
| O=C1NC(Cc2ccc3ccccc3c2)C(=O)N1c1cc(Cl)cc(Cl)c1 (centres unmarked) [Example 17] | < 4.20 | 5.52 | 125 | – | – | – | – | – | No inh^c | – | – |
| C[C@@H](c1ccccc1)[C@H]1NC(=O)N(c2cc(Cl)cc(Cl)c2)C1=O [Example 22] | > 4.80 | 6.40 | 125 to 250 | – | – | – | – | – | No inh^c | – | – |
| CC(=O)N1C(=O)N(c2cc(Cl)cc(Cl)c2)C(=O)C1(C)Cc1ccccc1 (centres unmarked) [Example 96] | 4.30 | 6.34 | 100 to 200 | – | – | – | – | – | No inh^c | – | – |
| CCCN1C(=O)N(c2cc(Cl)cc(Cl)c2)C(=O)C1(C)Cc1ccccc1 (centres unmarked) [Example 90] | 4.00 to 4.30 | 6.14 | >500 | – | – | – | – | – | No inh^c | – | – |
| O=C1NC(Cc2ccccc2)C(=O)N1c1cc(Cl)cc(Cl)c1 (centres unmarked) [Example 20] | 4.80 | 5.75 | 125 to 250 | 3.90 to 4.20 | – | – | – | – | – | – | – |
| O=C1NC(Cc2ccc([N+](=O)[O-])cc2)C(=O)N1c1cc(Cl)cc(Cl)c1 (centres unmarked) [Example 7] | 4.00 to 4.30 | 5.88 | 250 to 500 | – | – | – | – | – | No inh^c | – | – |
| CN1C(=O)N(c2cc(Cl)cc(Cl)c2)C(=O)C1(C)Cc1ccc(Br)cc1 (centres unmarked) [Example 138] | 5.22 | – | 250 to 500 | – | – | – | – | – | No inh^c | – | – |
| O=C1NC(Cc2ccc([N+](=O)[O-])cc2)C(=O)N1c1cc(Cl)cc(Cl)c1 (centres unmarked) [Example 24] | – | 6.07 | >400 | – | – | – | – | – | No inh^c | < 4.22 | – |
| CC1(Cc2ccccc2)NC(=O)N(c2cc(C(F)(F)F)cc(C(F)(F)F)c2)C1=O (centres unmarked) [Example 16] | 4.42 to 4.72 | 6.07 | 63 to 125 | < 4.12 | – | – | – | – | – | – | – |
| CN1C(=O)N(c2cc(Cl)cc(Cl)c2)C(=O)C1Cc1ccccc1 (centres unmarked) [Example 82] | 3.90 to 4.20 | 5.68 | 250 to 500 | < 3.60 | – | – | – | – | – | – | – |
| O=C1CC(Cc2ccccc2)C(=O)N1c1cc(Cl)cc(Cl)c1 (centres unmarked) [Example 76] | 3.52 to 3.82 | 5.63 | >500 | < 3.52 | – | – | – | – | – | – | – |
| CN1C(=O)N(c2cc(Cl)cc(Cl)c2)C(=O)[C@]1(C)Cc1ccc(Br)cc1 [Example 272] | – | – | 250 to 500 | – | 4.00 to 4.30 | – | No inh^c | – | – | – | – |
| C[C@@H](c1ccccc1)[C@@H]1C(=O)N(c2cc(Cl)cc(Cl)c2)C(=O)N1C [Example 86] | 4.42 to 4.72 | 6.28 | >500 | < 4.12 | – | – | – | – | – | – | – |
| CN1C(=O)N(c2cc(C(F)(F)F)cc(C(F)(F)F)c2)C(=O)C1(C)Cc1ccccc1 (centres unmarked) [Example 88] | – | 6.39 | 250 to 500 | – | – | – | – | – | – | 4.42 to 4.72 | < 4.12 |
| C[C@@]1(Cc2ccc(Br)cc2)C(=O)N(c2cc(Cl)cc(Cl)c2)C(=O)N1CCCCCS(=O)(=O)O [Example 251] | – | – | 100 to 200 | – | > 6.30 | 7.22 | No inh^c | – | – | – | – |
| C[C@@]1(Cc2ccc([N+](=O)[O-])cc2)C(=O)N(c2cc(Cl)cc(Cl)c2)C(=O)N1S(C)(=O)=O [Example 136] | 6.00 to 6.22 | 6.72 | 150 to 300 | – | – | – | – | – | No inh^c | – | – |
| O=C1N[C@@H](Cc2ccccc2)C(=O)N1c1cc(Cl)cc(Cl)c1 [Example 14] | 3.90 to 4.20 | 4.90 | 125 to 250 | < 3.90 | – | – | – | – | – | – | – |
| CC1(Cc2c[nH]c3ccccc23)NC(=O)N(c2cc(Cl)cc(Cl)c2)C1=O (centres unmarked) [Example 28] | – | 5.59 | 100 to 200 | – | – | – | – | – | No inh^c | – | – |
| C[C@@]1(Cc2ccc(Br)cc2)C(=O)N(c2cc(Cl)cc(Cl)c2)C(=O)N1C(=O)CO [Example 231] | – | – | 40 to 80 | – | 5.30 to 5.70 | 6.57 | No inh^c | – | – | – | – |
| C[C@H](c1ccccc1)[C@H]1NC(=O)N(c2cc(Cl)cc(Cl)c2)C1=O [Example 21] | > 4.80 | 6.16 | 125 to 250 | 3.60 to 3.90 | – | – | – | – | – | – | – |
| CN1C(=O)N(c2cc(Cl)cc(Cl)c2)C(=O)[C@@]1(C)Cc1ccc(-c2ccncc2)cc1 [Example 189] | 5.92 to 6.22 | 6.72 | 63 | – | – | – | – | – | No inh^c | – | – |
| C[C@@]1(Cc2ccccc2)NC(=O)N(c2cc(Cl)cc(Cl)c2)C1=O [Example 2] | < 4.00 | 4.84 | 125 to 250 | < 4.00 | – | – | – | – | – | – | – |
